Test results as given in patent US20150010928A1, “MEANS AND METHODS FOR ASSESSING AN ENDOCRINE DISEASE OR DISORDER” (priority 2012, published 2015).
Marks after values point to notes of the source that are not given here.

System: male rats
Assay: Plasma metabolite profiling (GC-MS, LC-MS, SPE-LC-MS) in male rats dosed once daily over 28 days (OECD 407)
Type: in vivo, rat
Set-up: key to erythro-Sphingoside (d18:1) / Tricosanoic acid (C23:0) / beta-Sitosterol / Tryptophan: ratio of treated group mean to untreated control group mean
Protocol: Each dose group in the studies consisted of five rats per sex. Additional groups of each 5 male and female animals served as controls. […] All animals of the animal population were kept under the same constant temperature (20-24±3° C.) and the same constant humidity (30-70%). The animals of the animal population were fed ad libitum. The food to be used was essentially free of chemical or microbial contaminants. Drinking water was also offered ad libitum. Accordingly, the water was free of chemical and microbial contaminants as laid down in the European Drinking Water Directive 98/83/EG. The illumination period was 12 hours light followed by 12 hours darkness (12 hours light, from 6:00 to 18:00, and 12 hours darkness, from 18:00 to 6:00). […] The test substances (compounds) in the Tables 1 to 17 below were dosed and administered as described in the Table 18.
In the morning of day 7, 14, and 28, blood was taken from the retroorbital venous plexus from fasted anaesthetized animals. From each animal, 1 ml of blood was collected with EDTA as anticoagulant. The samples were centrifuged for generation of plasma. All plasma samples were covered with a N2 atmosphere and then stored at −80° C. until analysis.
For mass spectrometry-based metabolite profiling analyses plasma samples were extracted and a polar and a non-polar (lipid) fraction was obtained. For GC-MS analysis, the non-polar fraction was treated with methanol under acidic conditions to yield the fatty acid methyl esters. Both fractions were further derivatised with O-methyl-hydroxyamine hydrochloride and pyridine to convert Oxogroups to O-methyloximes and subsequently with a silylating agent before analysis. In LC-MS analysis, both fractions were reconstituted in appropriate solvent mixtures. HPLC was performed by gradient elution on reversed phase separation columns. Mass spectrometric detection which allows target and high sensitivity MRM (Multiple Reaction Monitoring) profiling in parallel to a full screen analysis was applied as described in WO2003073464.
Steroids and their metabolites were measured by online SPE-LC-MS (Solid phase extraction-LC-MS).
Following comprehensive analytical validation steps, the data for each analyte were normalized against data from pool samples. These samples were run in parallel through the whole process to account for process variability. The significance of treatment group values specific for sex, treatmentduration and metabolite was determined by comparing means of the treated groups to the means of the respective untreated control groups using WELCH-test and quantified with treatment ratios versus control and p-values.
The identification of the most important biomarkers per toxicity pattern was done by a ranking of the analytes in the tables below. Therefore the metabolic changes in reference treatments of a given pattern (shown in the table) were compared with changes of the same metabolite in other unrelated treatments. […] The maximum absolute value of the respective TVALUE was taken to indicate the most important metabolite for the pattern.

## CC(C)C(=O)Nc1ccc([N+](=O)[O-])c(C(F)(F)F)c1 [Flutamide]
m7, high dose, Table 10a
  3-O-Methylsphingosine (d18:1): 1.27 *
  Nervonic acid (C24:cis[15]1): 1.39 *
  Stearic acid (C18:0): 1.15 *
  alpha-Tocopherol: 1.55 *
  threo-Sphingosine (d18:1): 1.39 *
m7, high dose, Table 10b
  Thyroxine (T4): 0.46 *
  trans-4-Hydroxyproline: 0.79 *
m7, high dose, Table 11a
  3-Methoxytyrosine: 1.97 *
  3-O-Methylsphingosine (d18:1): 1.27 *
  Androstenedione: 19.42 *
  Behenic acid (C22:0): 1.89 *
  Dodecanol: 1.2 *
  Eicosanoic acid (C20:0): 2.11 *
  Galactose, lipid fraction: 1.44 *
  Glycerol phosphate, lipid fraction: 1.57 *
  Nervonic acid (C24:cis[15]1): 1.39 *
  Noradrenaline (Norepinephrine): 1.36 *
  Phosphatidylcholine (C18:0, C18:2): 1.38 *
  Phytosphingosine: 2.29 *
  Stearic acid (C18:0): 1.15 *
  Testosterone: 10.33 *
  Tryptophan: 1.22 *
  dihomo-gamma-Linolenic acid (C20:cis[8,11,14]3): 1.55 *
  myo-Inositol-2-phosphate, lipid fraction: 2.52 *
  threo-Sphingosine (d18:1): 1.39 *
m7, high dose, Table 11b
  3-Hydroxybutyrate: 0.53 *
  4-Hydroxy-3-methoxyphenylglycol (HMPG): 0.67 *
  18-Hydroxy-11-deoxycorticosterone: 0.75^
  21-Hydroxyprogesterone (11-Deoxycorticosterone): 0.65^
  Citrate: 0.74 *
  Coenzyme Q9: 0.73 *
  Coenzyme Q10: 0.58 *
  Corticosterone: 0.83^
  Metanephrine: 0.5 *
  Palmitoleic acid (C16:cis[9]1): 0.77 *
  Progesterone: 0.64^
  trans-4-Hydroxyproline: 0.79 *
m14, high dose, Table 10a
  3-O-Methylsphingosine (d18:1): 0.78
  5-O-Methylsphingosine (d18:1): 0.81
  Cysteine: 0.96
  Lignoceric acid (C24:0): 0.9
  Nervonic acid (C24:cis[15]1): 0.93
  Oleic acid (C18:cis[9]1): 1.1
  Stearic acid (C18:0): 1.01
  alpha-Tocopherol: 1.24
  erythro-Sphingoside (d18:1): 0.79
  threo-Sphingosine (d18:1): 0.95
m14, high dose, Table 10b
  Oleic acid (C18:cis[9]1): 1.1
  Phosphatidylcholine (C16:0, C16:0): 0.7 *
  Thyroxine (T4): 0.57^
  trans-4-Hydroxyproline: 0.89 *
m14, high dose, Table 11a
  3-Methoxytyrosine: 1.47 *
  3-O-Methylsphingosine (d18:1): 0.78
  5-O-Methylsphingosine (d18:1): 0.81
  Androstenedione: 46.48 *
  Arachidonic acid (C20:cis[5,8,11,14]4): 0.99
  Cholesterol: 1.07
  Cysteine: 0.96
  Eicosanoic acid (C20:0): 1.84 *
  Galactose, lipid fraction: 1.07
  Glycerol phosphate, lipid fraction: 1.18 *
  Indole-3-lactic acid: 1.06
  Lignoceric acid (C24:0): 0.9
  Nervonic acid (C24:cis[15]1): 0.93
  Noradrenaline (Norepinephrine): 1.85 *
  Phosphate, lipid fraction: 1.08
  Phosphatidylcholine (C18:0, C18:2): 1.17
  Phosphatidylcholine (C18:0, C20:3): 1.01
  Phosphatidylcholine (C18:0, C22:6): 0.96
  Phosphatidylcholine (C18:0,C18:1): 1.15
  Stearic acid (C18:0): 1.01
  Testosterone: 16.89 *
  Tricosanoic acid (C23:0): 0.9
  Tryptophan: 1.15
  alpha-Tocopherol: 1.16
  beta-Sitosterol: 0.91
  dihomo-gamma-Linolenic acid (C20:cis[8,11,14]3): 1.46 *
  erythro-Sphingosine (d18:1): 0.79
  threo-Sphingosine (d18:1): 0.95
m14, high dose, Table 11b
  3-Hydroxybutyrate: 0.72 *
  4-Hydroxy-3-methoxyphenylglycol (HMPG): 0.7 *
  18-Hydroxy-11-deoxycorticosterone: 0.48 *
  21-Hydroxyprogesterone (11-Deoxycorticosterone): 0.31 *
  Citrate: 0.88 *
  Coenzyme Q10: 0.43 *
  Corticosterone: 0.38 *
  Metanephrine: 0.61 *
  Palmitoleic acid (C16:cis[9]1): 0.68 *
  Phosphatidylcholine (C16:0, C16:0): 0.7 *
  Progesterone: 0.33 *
  trans-4-Hydroxyproline: 0.89 *
m28, high dose, Table 10a
  3-O-Methylsphingosine (d18:1): 1.52^
  Cysteine: 1.41 *
  Lignoceric acid (C24:0): 1.3 *
  Nervonic acid (C24:cis[15]1): 1.46 *
  alpha-Tocopherol: 1.54 *
  threo-Sphingosine (d18:1): 1.38 *
m28, high dose, Table 10b
  Phosphatidylcholine (C16:0, C16:0): 0.81 *
  Thyroxine (T4): 0.72^
  trans-4-Hydroxyproline: 0.72 *
m28, high dose, Table 11a
  3-Methoxytyrosine: 1.55 *
  3-O-Methylsphingosine (d18:1): 1.52 *
  Androstenedione: 18.79 *
  Behenic acid (C22:0): 1.34 *
  Cholesterol: 1.22 *
  Cysteine: 1.41 *
  Eicosanoic acid (C20:0): 1.93 *
  Histidine: 0.98^
  Lignoceric acid (C24:0): 1.3 *
  Nervonic acid (C24:cis[15]1): 1.46 *
  Noradrenaline (Norepinephrine): 0.93^
  Phosphatidylcholine (C18:0, C20:3): 0.94^
  Phosphatidylcholine (C18:0, C22:6): 1.34 *
  Testosterone: 8.45 *
  Threonine: 1.22 *
  alpha-Tocopherol: 1.19^
  beta-Sitosterol: 0.89^
  dihomo-gamma-Linolenic acid (C20:cis[8,11,14]3): 2.58 *
  myo-Inositol-2-phosphate, lipid fraction: 1.44 *
  threo-Sphingosine (d18:1): 1.38 *
m28, high dose, Table 11b
  4-Hydroxy-3-methoxyphenylglycol (HMPG): 0.8 *
  18-Hydroxy-11-deoxycorticosterone: 0.07 *
  21-Hydroxyprogesterone (11-Deoxycorticosterone): 0.26 *
  Citrate: 0.9
  Coenzyme Q9: 0.95^
  Coenzyme Q10: 0.4 *
  Corticosterone: 0.07 *
  Metanephrine: 0.48 *
  Palmitoleic acid (C16:cis[9]1): 0.6 *
  Phosphatidylcholine (C16:0, C16:0): 0.81 *
  Progesterone: 0.25 *
  trans-4-Hydroxyproline: 0.72 *
rat, in vivo
  3-Hydroxybutyrate: 1.08^
  Behenic acid (C22:0): 1.12 *
  Cholesterol: 1.43 *
  Coenzyme Q9: 1.04^
  Cysteine: 1.21^
  Galactose, lipid fraction: 1.23 *
  Glycerol phosphate, lipid fraction: 1.28 *
  Lignoceric acid (C24:0): 1.43 *
  Phosphatidylcholine (C16:0, C16:0): 1.12^
  Phosphatidylcholine (C18:0, C18:2): 1.13^
  Phosphatidylcholine (C18:0, C20:3): 1.14 *
  Phosphatidylcholine (C18:0, C22:6): 1.01^
  Stearic acid (C18:0): 1.29 *
  Tryptophan: 1.08 *
  alpha-Tocopherol: 1.43 *
  beta-Sitosterol: 1.24 *
  myo-Inositol-2-phosphate, lipid fraction: 1.06 *
